Here are results for two compounds from article PMC9317316, “Synthesis and Evaluation of Some New 4H-Pyran Derivatives as Antioxidant, Antibacterial and Anti-HCT-116 Cells of CRC, with Molecular Docking, Antiproliferative, Apoptotic and ADME Investigations” (Pharmaceuticals, 2022).

The nature of experiment [1]: Reducing power assay (FRAC, Fe3+ to Fe2+). The settings on record: 0-1 mg/mL, absorbance 700 nm. An outline of the steps: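 Oyaizu method: compound (0–1 mg/mL) incubated with 0.2 M phosphate buffer pH 6.6 and 1% K3Fe(CN)6 at 50 °C for 20 min, then TCA, centrifugation, and 0.1% FeCl3 added to supernatant. Absorbance read at 700 nm; EC50 expressed in mM, BHT as reference.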

The subject of experiment [2] is S. enteric (ATCC 43972). As to the kind of experiment: Antibacterial agar diffusion method (inhibition zone). The format is cell-based. A digest of the protocol:
(§1)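 CFU assay: 2 ×10^7 CFU/mL, BHI, compound, 60 min shaking 37 °C → serial dilution → agar plates 24 h 37 °C → residual CFU vs inoculum → IC50 (n=3). Agar diffusion: zone on top agar; ampicillin 10 µg/well reference.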
(Agar diffusion results depend on both activity and mobility in agar.)

For experiment [3], the system named is S. epidermidis (ATCC 14990). The description is as above. The format is cell-based. A digest of the protocol:
as §1

In another experiment the test system is B. cereus (ATCC 14579). As to the kind of experiment: Antibacterial viability (CFU) assay, IC50. The format is cell-based. Conditions: Bacillus cereus, ATCC14579. An outline of the steps:
as §1

Another experiment relates to B. subtilis (ATCC 6633). As to the kind of experiment: Antibacterial viability (CFU) assay, IC50. The format is cell-based. The settings on record: Bacillus subtilis, ATCC6633, B. subtilis (ATCC 6633). An outline of the steps: as §1
The subject of another experiment is E. coli (ATCC 25966). Briefly: Antibacterial viability (CFU) assay, IC50. The format is cell-based. The settings on record: Escherichia coli, ATCC25966; E. coil (ATCC 25966). A digest of the protocol:
as §1

The next experiment deals with E. faecalis (ATCC 29122). As to the kind of experiment: Antibacterial viability (CFU) assay, IC50. The format is cell-based. The settings on record: Enterococcus faecalis, ATCC29122. A digest of the protocol:
as §1

In experiment [4] the test system is K. pneumonia (ATCC 700603). As to the kind of experiment: Antibacterial viability (CFU) assay, IC50. Conditions: Klebsiella pneumoniae, ATCC700603. The format is cell-based. A digest of the protocol:
as §1

In experiment [5] the test system is P. aeruginosa (ATCC 27853). Briefly: Antibacterial viability (CFU) assay, IC50. The format is cell-based. The settings on record: Pseudomonas aeruginosa, ATCC27853. A digest of the protocol:
as §1

In the next experiment the test system is S. aureus (ATCC 25923). Briefly: Antibacterial viability (CFU) assay, IC50. The format is cell-based. Conditions: Staphylococcus aureus, ATCC25923. An outline of the steps:
as §1

Experiment [6] relates to S. enteric (ATCC 43972). Briefly: Antibacterial viability (CFU) assay, IC50. Conditions: read-out: IC50. The format is cell-based. A digest of the protocol: as §1
Experiment [7] relates to S. epidermidis (ATCC 14990). Briefly: Antibacterial viability (CFU) assay, IC50. The format is cell-based. Conditions: Staphylococcus epidermidis, ATCC14990. An outline of the steps: as §1
The target in a further experiment is T1, CDK2/CyclinA2 enzyme (Homo sapiens, UniProt P24941).
T1 construct: purchased BPS Biosciences, San Diego, CA, USA 79599
Briefly: In vitro CDK2 inhibitory assay (Kinase-Glo). The format is biochemical. The settings on record: for IC50: deduced from curves over 0.01-10 µM, read-out: IC50 against CDK2. As to the method: To further substantiate the promising results of the docking analyses of pyrans 4d and 4K in the ATP active site of CDK2, their in vitro potencies to inhibit the enzyme activity were evaluated over a concentration range of 0.01−10 µM.
CDK-2 inhibition activity of the studied compounds 4d and 4k was evaluated using a commercial CDK2 […] (cat. no.: 79599; BPS Biosciences, San Diego, CA, USA) following the manufacturer’s instructions. Briefly, different concentrations of each compound or the positive control BMS-265246 (0.01, 0. 1, 1 or 10 µM) were incubated with 20 µL of diluted CDK2/CyclinA2 enzyme at 30 °C for 45 min. Following the addition of 50 µL Kinase-Glo® Reagent to each well, the plate was incubated at room temperature for 15 min. Then, the luminescence signal was measured using the microplate reader. The CDK2 inhibitory activity was expressed as inhibition percentage, which was determined by comparison with a control experiment for comparative purposes. IC50 values were deduced from the curves. All measurements were performed in triplicate.
Background: In Kinase-Glo more light means more ATP remaining.

One may read the EC50 as the midpoint of the concentration-response curve. In general, IC50 refers to the midpoint of a concentration-inhibition curve. `COc1cc(C2C(C#N)=C(N)OC(C)=C2C(=O)OCc2ccccc2)cc(OC)c1OC` (stereo not drawn) [4d, 6-Amino-5-cyano-2-methyl-4-(3,4,5-trimethoxy-phenyl)-4H-pyran-3-carboxylic acid benzyl ester] displayed an EC50 in [1] of 149 ± 16 µM. In addition, the “IZ (mm)” value with S. enteric (ATCC 43972) [2] amounted to 7.0 ± 0.0 mm; in experiment [3] it was 8.50 ± 0.71 mm. The half-inhibitory concentration (IC50) amounted to 39.5 ± 0.8 µM in the experiment with B. cereus (ATCC 14579); 40.3 ± 1.95 µM in the experiment on B. subtilis (ATCC 6633); 88.7 ± 2.52 µM in the experiment with E. coli (ATCC 25966); 29.1 ± 2.27 µM in the experiment on E. faecalis (ATCC 29122); 72.63 ± 0.69 µM in experiment [4]; 67.4 ± 1.37 µM in experiment [5]. In addition, the half-inhibitory concentration (IC50) in the experiment with S. aureus (ATCC 25923) turned out to be 24.4 ± 1.15 µM; with S. enteric (ATCC 43972) [6] it was 65.8 ± 2.29 µM; in experiment [7] it was 26.7 ± 1.15 µM; at CDK2/CyclinA2 enzyme, 0.143 µM. Further, the “decrease of CDK2 activity” value on CDK2/CyclinA2 enzyme (at 0.01 µM) worked out at 26.9%; on CDK2/CyclinA2 enzyme (at 0.1 µM), 41.5%; at CDK2/CyclinA2 enzyme (at 1 µM), 72.5%; on CDK2/CyclinA2 enzyme (at 10 µM), 89%.
`CC1=C(C(=O)OCc2ccccc2)C(c2ccc(C#N)cc2)C(C#N)=C(N)O1` (stereo not drawn) [4k, 6-Amino-5-cyano-4-(4-cyano-phenyl)-2-methyl-4H-pyran-3-carboxylic acid benzyl ester] yielded an EC50 in [1] of 1560 ± 102 µM. In addition, in experiment [3], the “IZ (mm)” value is on record as 4.50 ± 0.71 mm. Further, the IC50 was 48.1 ± 1.35 µM with B. cereus (ATCC 14579); 42.1 ± 2.48 µM in the experiment with B. subtilis (ATCC 6633); 80.2 ± 4.31 µM in the experiment with E. coli (ATCC 25966); 45.4 ± 0.57 µM in the experiment on E. faecalis (ATCC 29122); 77.8 ± 2.96 µM in [4]; 73.2 ± 3.5 µM in [5]. Moreover, the IC50 in the experiment on S. aureus (ATCC 25923) is 43.9 ± 0.57 µM; with S. enteric (ATCC 43972) [6], 75.5 ± 2.42 µM; in [7] it was 50.2 ± 2.48 µM; at CDK2/CyclinA2 enzyme it was 0.214 µM. Also, the “decrease of CDK2 activity” value is reported as 21.9% on CDK2/CyclinA2 enzyme (at 0.01 µM), 42.4% at CDK2/CyclinA2 enzyme (at 0.1 µM), 66.3% on CDK2/CyclinA2 enzyme (at 1 µM) and 83.6% at CDK2/CyclinA2 enzyme (at 10 µM).
